Assay: Tacrolimus tissue pharmacokinetics, oral vs intra-cecal ingestible device delivery
Assay type: in vivo, Yorkshire-Cross farm swine
Conditions: swine; intra-cecally vs orally administered; 12 hours post-dose; FIG. 76
Method: The primary objective of this study was to compare the tissue, plasma, rectal sample, and GI content pharmacokinetics of tacrolimus through oral versus intra-cecal ingestible device delivery in normal Yorkshire-Cross farm swine.
No further randomization procedure was employed.
Animals in Group 1 received an ingestible device containing 0.8 mL of vehicle solution (80% alcohol, 20% HCO-60). Animals in Group 2 received orally […] liquid formulation of tacrolimus at 4 mg/0.8 mL per animal (Prograf: 5 mg/mL). Animals in Group 3 received intra-cecally an ingestible device containing tacrolimus at 1 mg in 0.8 mL per ingestible device. Animals in Group 4 received intra-cecally an ingestible device containing tacrolimus at 2 mg in 0.8 mL per ingestible device. Animals in Group 5 received intra-cecally an ingestible device containing tacrolimus at 4 mg in 0.8 mL per ingestible device. […]
For tissue necropsy, small intestine fluid and cecal fluid were collected separately from all the animals into two separate square plastic bottles, and stored at −20° C. The length and diameter of the cecum and the colon was measured from one animal in each group and recorded for reference. […] All samples were weighed, and the tissue sample weights were recorded. […] Around 3 grams of the total punched sample were collected into a pre-weighed 15-mL conical tube, and the tissue weight was recorded. […]

mean concentration of tacrolimus in the cecum tissue and the proximate colon tissue: higher
Structure (SMILES): C=CC[C@@H]1/C=C(\C)C[C@H](C)C[C@H](OC)[C@H]2O[C@@](O)(C(=O)C(=O)N3CCCC[C@H]3C(=O)O[C@H](/C(C)=C/[C@@H]3CC[C@@H](O)[C@H](OC)C3)[C@H](C)[C@@H](O)CC1=O)[C@H](C)C[C@@H]2OC [tacrolimus]

Source: patent US11857669B2, “Treatment of a disease of the gastrointestinal tract with a JAK inhibitor and devices” (BIORA THERAPEUTICS, INC., priority 2016, dated 2024)
